Values of other authors, collected in US20120201867A1, “DRUG DELIVERY FROM EMBOLIC AGENTS” (priority 2004, published 2012).
Counter-ions that a name gives are not always drawn.

Tests used:
[1] = test system: topoisomerase I purified from human and rodent tumour cell lines; conditions: SN-38 versus irinotecan
CC531-lacZ cells = conditions: Saenger et al.

CCc1c2c(nc3ccc(O)cc13)-c1cc3c(c(=O)n1C2)COC(=O)[C@]3(O)CC [SN-38]
potency relative to irinotecan as an inhibitor of topoisomerase I [1]: approximately 1000 times

CCc1c2c(nc3ccc(OC(=O)N4CCC(N5CCCCC5)CC4)cc13)-c1cc3c(c(=O)n1C2)COC(=O)[C@]3(O)CC [irinotecan, Irinotecan hydrochloride trihydrate]
complete remission, share of rats (CC531-lacZ cells): 44%
reduction of the mean tumour cell load (CC531-lacZ cells): 66%
